Results reported in US20170007610A1, “NOVEL HETEROBICYCLIC COMPOUNDS AS KAPPA OPIOID AGONISTS” (priority 2014, published 2017).
pEC50, pIC50: −log10 of the molar value. Where two headings read alike, the source gives them in different places.

Assays:
ICR mice [1] = assay: Acetic acid-induced writhing model; assay type: in vivo; settings: acetic acid induced pain model, oral or i.v. administration, writhes for 15 min; for ED50: Mus musculus, 0.25 h, read-out: In-vivo ED50
Procedure: (§1) All the animal experiments were carried out in ICR mice, bred in-house. Animals were housed in groups of 6 animals per cage, for a week, in order to habituate them to vivarium conditions (25±4° C., 60-65% relative humidity, 12:12 h light: dark cycle, with lights on at 7.30 am). All the animal experiments were carried out according to the internationally valid guidelines following approval by the ‘Zydus Research Center animal ethical committee’.
Following oral or i.v. administration of test compounds, mice are rested for 5 min before i.p. injection with 10 ml/kg of 0.6% v/v acetic acid in normal saline. […] A writhe is defined as a constriction of the abdominal area, often with extension of the hind legs. Percentage maximum possible effect (MPE) was calculated as below:
% MPE=100−[(No. of writhes in treated mice/No. of writhes in vehicle treated mice)]×100
ED50 dose is determined using GraphPad Prism.

kappa opioid receptor [2] = target: T1, kappa opioid receptor (Mus musculus, UniProt P33534); assay: Ex-vivo KOR agonistic activity, electrically stimulated mouse vas deferens (MVD) model
T1 construct: from tissue; host or cells: mouse vas deferens (male Swiss Albino mice)
Procedure: a) Ex-Vivo KOR Agonistic Activity Testing, Using Electrically Stimulated Mouse Vas Deferens (MVD) Model:
Ex-vivo, the kappa opioid receptor agonistic activity of test compounds were tested on the electrically stimulated mouse vas deferens (MVD) preparations (Henderson et al., Br. J. Pharmacol., 46, 764-766, 1972; Portoghese et al., Life Sci. 36, 801-805, 1985) and IC50 were determined. In general, vas deferentia were taken from male Swiss Albino mice (30-40 g) and suspended in 8 ml organ baths, at 31° C., containing modified Krebs-Henseleit solution, without magnesium sulphate. Each vas deferens was equilibrated for 45 min at 2.6 mN tension and then stimulated at supramaximal voltage with five 1 ms pulses, at a frequency of 0.1 Hz. Concentration-response curves were determined by cumulative dosing. Inhibitory Concentration, 50% (IC50) values were determined by Sigmoidal dose-response (variable slope) equation, using Prizm v 6.01. The kappa opioid receptor specificity was determined by rightward shift in concentration-response curves in presence of 1 nM norbinaltorphimine (norBNI), a selective kappa opioid receptor antagonist.

ICR mice [3] = assay: Assessment of CNS effects (spontaneous locomotion, sedation, catalepsy), threshold dose; assay type: in vivo; settings: lowest dose which shows pharmacodynamic effect (locomotion, sedation, catalepsy), oral or i.v.
Procedure: as §1
Assessment of CNS Effects of Test Compounds
Test compounds were dissolved in normal saline injected by oral or i.v., routes in ICR mice tail vein. […] The dose is scaled down or up if pharmacodynamic effect is present or absent respectively.

kappa opioid receptor [4] = target: T2, kappa opioid receptor (Homo sapiens, UniProt P41145); assay: Invitro KOR agonistic activity, cAMP based functional assay; assay type: cell-based
T2 construct: grown in complete Ham's F-12 medium

[5] = electrically stimulated mouse vas deferens preparation, cumulative dosing, read-out: Ex-vivo IC50
[6] = cAMP direct ELISA, forskolin 20 μM, agonist 20 minutes, read-out: In-vitro EC50

T2 sequence (P41145 whole entry): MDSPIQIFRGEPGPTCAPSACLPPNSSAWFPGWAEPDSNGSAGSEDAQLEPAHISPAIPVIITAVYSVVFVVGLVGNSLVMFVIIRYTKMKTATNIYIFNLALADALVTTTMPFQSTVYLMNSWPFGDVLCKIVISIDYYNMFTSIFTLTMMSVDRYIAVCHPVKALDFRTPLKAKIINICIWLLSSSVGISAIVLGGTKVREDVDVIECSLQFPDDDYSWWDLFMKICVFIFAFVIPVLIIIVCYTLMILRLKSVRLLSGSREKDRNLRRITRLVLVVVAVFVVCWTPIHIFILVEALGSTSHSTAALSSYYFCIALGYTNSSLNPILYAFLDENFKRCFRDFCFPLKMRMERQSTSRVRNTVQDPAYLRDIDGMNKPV
T1 sequence (P33534 whole entry): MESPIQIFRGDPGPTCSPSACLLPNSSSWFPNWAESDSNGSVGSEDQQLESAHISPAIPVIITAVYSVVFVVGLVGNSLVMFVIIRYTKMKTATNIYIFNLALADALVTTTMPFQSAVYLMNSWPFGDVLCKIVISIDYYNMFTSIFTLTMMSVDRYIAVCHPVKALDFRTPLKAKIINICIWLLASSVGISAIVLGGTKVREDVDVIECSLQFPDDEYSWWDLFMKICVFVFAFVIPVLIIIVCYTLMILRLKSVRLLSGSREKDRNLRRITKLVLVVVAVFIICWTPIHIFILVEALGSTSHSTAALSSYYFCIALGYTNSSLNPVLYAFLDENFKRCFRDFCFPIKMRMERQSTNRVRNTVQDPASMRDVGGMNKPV

Compound	pIC50 (kappa opioid receptor [2])	pEC50 (kappa opioid receptor [4])	other results
CN(C(=O)COc1ccc(NS(C)(=O)=O)c2cccnc12)[C@H](CN1CC[C@H](O)C1)c1ccccc1 [Compound 6, N-((S)-2-((S)-3-hydroxypyrrolidin-1-yl)-1-phenylethyl)-N-methyl-2-((5-methylsulfonamido)quinolin-8-yloxy)acetamide]	6.46	9.03	ED50 (ICR mice [1]): 1.1 mg/kg; CNS TD (ICR mice [3]): 30 mg/kg
CN(C(=O)COc1ccc(NS(C)(=O)=O)c2c1CCCN2)[C@H](CN1CC[C@H](O)C1)c1ccccc1 [Compound 15, N-((S)-2-((S)-3-hydroxypyrrolidin-1-yl)-1-phenylethyl)-N-methyl-2-((8-(methylsulfonamido)-1,2,3,4-tetrahydroquinolin-5-yl)oxy)acetamide]	9.05	11.52	ED50 (ICR mice [1]): 0.92 mg/kg; CNS TD (ICR mice [3]): 10 mg/kg
CN(C(=O)COc1ccc2c(c1)CCCN2S(C)(=O)=O)[C@H](CN1CC[C@H](O)C1)c1ccccc1 [Compound 20, N-((S)-2-((S)-3-hydroxypyrrolidin-1-yl)-1-phenylethyl)-N-methyl-2-((1-(methylsulfonyl)-1,2,3,4-tetrahydroquinolin-6-yl)oxy)acetamide]	5.76	8.67	ED50 (ICR mice [1]): 1.8 mg/kg; CNS TD (ICR mice [3]): 30 mg/kg
CN1CCCc2c(OCC(=O)N(C)[C@H](CN3CC[C@H](O)C3)c3ccccc3)ccc(NS(C)(=O)=O)c21 [Compound 22, N-((S)-2-((S)-3-hydroxypyrrolidin-1-yl)-1-phenylethyl)-N-methyl-2-((1-methyl-8-(methylsulfonamido)-1,2,3,4-tetrahydroquinolin-5-yl)oxy)acetamide]	8.09	11.10	ED50 (ICR mice [1]): 2.5 mg/kg; CNS TD (ICR mice [3]): 60 mg/kg
COCC(=O)Nc1ccc(OCC(=O)N(C)[C@H](CN2CC[C@H](O)C2)c2ccccc2)c2cccnc12 [Compound 35, N-((S)-2-((S)-3-hydroxypyrrolidin-1-yl)-1-phenylethyl)-2-((8-(2-methoxyacetamido)quinolin-5-yl)oxy)-N-methylacetamide]	7.32	10.22	–
CN(C(=O)COc1ccc(NS(=O)(=O)N2CCCC2)c2ncccc12)[C@H](CN1CC[C@H](O)C1)c1ccccc1 [Compound 38]	8.13	9.02	–
CN(C(=O)COc1ccc(NC(=N)N)c2ncccc12)[C@H](CN1CC[C@H](O)C1)c1ccccc1 [Compound 40, 2-((8-guanidinoquinolin-5-yl)oxy)-N-((S)-2-((S)-3-hydroxypyrrolidin-1-yl)-1-phenylethyl)-N-methylacetamide]	8.96	11.15	–
CN(C(=O)COc1ccc(NCCO)c2ncccc12)[C@H](CN1CC[C@H](O)C1)c1ccccc1 [Compound 41]	6.60	8.88	–
CN(C(=O)COc1ccc(NS(C)(=O)=O)c2ncccc12)[C@H](CN1CC[C@H](O)C1)c1cccc([N+](=O)[O-])c1 [Compound 42, N-((S)-2-((S)-3-hydroxypyrrolidin-1-yl)-1-(3-nitrophenyl)ethyl)-N-methyl-2-((8-(methylsulfonamido)quinolin-5-yl)oxy) acetamide]	7.30	10.36	–
CC(=O)Nc1cccc([C@@H](CN2CC[C@H](O)C2)N(C)C(=O)COc2ccc(NS(C)(=O)=O)c3ncccc23)c1 [Compound 45, N-((S)-1-(3-acetamidophenyl)-2-((S)-3-hydroxypyrrolidin-1-yl)ethyl)-N-methyl-2-((8-(methylsulfonamido)quinolin-5-yl)oxy) acetamide]	7.85	10.18	–
CN(C(=O)COc1cccc2ncccc12)[C@H](CN1CC[C@H](O)C1)c1cccc(NS(C)(=O)=O)c1 [Compound 46]	8.02	10.38	–
CN(C)c1cccc([C@@H](CN2CC[C@H](O)C2)N(C)C(=O)COc2ccc(NS(C)(=O)=O)c3ncccc23)c1 [Compound 47, N-((S)-1-(3-dimethylaminophenyl)-2-((S)-3-hydroxypyrrolidin-1-yl)ethyl)-N-methyl-2-((8-(methylsulfonamido)quinolin-5-yl)oxy) acetamide]	7.06	9.16	–
COc1cccc([C@@H](CN2CC[C@H](O)C2)N(C)C(=O)COc2ccc(NS(C)(=O)=O)c3ncccc23)c1 [Compound 49, N-((S)-2-((S)-3-hydroxypyrrolidin-1-yl)-1-(3-methoxyphenyl)ethyl)-N-methyl-2-((8-(methylsulfonamido)quinolin-5-yl)oxy) acetamide]	8.72	10.49	–
CCOC(=O)COc1cccc([C@@H](CN2CC[C@H](O)C2)N(C)C(=O)COc2ccc(NS(C)(=O)=O)c3ncccc23)c1 [Compound 50]	6.66	12.00	–
CN(C(=O)COc1ccc(NS(C)(=O)=O)c2ncccc12)[C@H](CN1CC[C@H](O)C1)c1cccc(OCC(=O)O)c1 [Compound 51]	–	–	pIC50 (kappa opioid receptor [2]; [5]): 7.80; pEC50 (kappa opioid receptor [4]; [6]): 9.96
CN(C(=O)COc1ccc(NS(C)(=O)=O)c2ncccc12)[C@H](CN1CC[C@H](O)C1)c1cccc(F)c1 [Compound 52, N-((S)-1-(3-fluorophenyl)-2-((S)-3-hydroxypyrrolidin-1-yl)ethyl)-N-methyl-2-((8-(methylsulfonamido)quinolin-5-yl)oxy) acetamide]	7.68	9.74	–
CN(C(=O)COc1ccc(NS(C)(=O)=O)c2ncccc12)[C@H](CN1CC[C@H](O)C1)c1cccc(C(F)(F)F)c1 [Compound 53, N-((S)-2-((S)-3-hydroxypyrrolidin-1-yl)-1-(3-(trifluoromethyl)phenyl)ethyl)-N-methyl-2-((8-(methylsulfonamido)quinolin-5-yl)oxy) acetamide]	7.14	9.17	–
Cc1cccc([C@@H](CN2CC[C@H](O)C2)N(C)C(=O)COc2ccc(NS(C)(=O)=O)c3ncccc23)c1 [Compound 54, N-((S)-2-((S)-3-hydroxypyrrolidin-1-yl)-1-(3-methyl)ethyl)-N-methyl-2-((8-(methylsulfonamido)quinolin-5-yl)oxy)acetamide]	7.85	10.01	–
CN(C(=O)COc1ccc2ccoc2c1)[C@H](CN1CC[C@H](O)C1)c1cccc([N+](=O)[O-])c1 [Compound 55, 2-(benzofuran-6-yloxy)-N-((S)-2-((S)-3-hydroxypyrrolidin-1-yl)-1-(3-nitrophenyl)ethyl)-N-methylacetamide]	6.51	8.72	–
CN(C(=O)COc1ccc2ccoc2c1)[C@H](CN1CC[C@H](O)C1)c1cccc(NS(C)(=O)=O)c1 [Compound 56, 2-(benzofuran-6-yloxy)-N-((S)-2-((S)-3-hydroxypyrrolidin-1-yl)-1-(3-(methylsulfonamido)phenyl)ethyl)-N-methylacetamide]	7.06	8.95	–
COC(=O)Nc1cccc([C@@H](CN2CC[C@H](O)C2)N(C)C(=O)COc2ccc3c(c2)OCO3)c1 [Compound 58, Methyl-(3-((S)-1-(2-(benzo[d][1,3]dioxol-5-yloxy)-N-methylacetamido)-2-((S)-3-hydroxypyrrolidin-1-yl)-ethyl)phenyl)carbamate]	8.01	10.01	–
N-((S)-2-((S)-3-hydroxypyrrolidin-1-yl)-1-phenylethyl)- N-methyl-2-((8-(pyrrolidine-1-sulfonamido)-1,2,3,4- tetrahydroquinolin-5-yloxy)acetamide [Compound 39]	–	–	pIC50 (kappa opioid receptor [2]; [5]): 9.02; pEC50 (kappa opioid receptor [4]; [6]): 10.06
N-((S)-2-((S)-3-hydroxypyrrolidin-1-yl)-1-phenylethyl)- N-methyl-2-((8-sulfonamido)-1,2,3,4-tetrahydroquinolin- 5-yloxy)acetamide [Compound 37]	–	–	In-vivo ED50 (ICR mice [1]): 6.2 mg/kg; pIC50 (kappa opioid receptor [2]; [5]): 9.52; pEC50 (kappa opioid receptor [4]; [6]): 10.89
N-((S)-2-((S)-3-hydroxypyrrolidin-1-yl)-1-phenylethyl)- N-methyl-2-((8-sulfonamido)quinolin-5-yloxy)acetamide [Compound 36]	–	–	pIC50 (kappa opioid receptor [2]; [5]): 8.11; pEC50 (kappa opioid receptor [4]; [6]): 8.95
